Source: patent US6514942B1, “Methods and compositions for stimulating T-lymphocytes” (The Board of Regents, The University of Texas System, priority 1995, dated 2003)
Entries after “also recorded” stand apart in the source; their conditions may differ.

Key:
Type in all cases: cell-based, human
[1] = tested on: OVA-16 (HLA-A2+, HER-2high) ovarian tumor; experiment: Cold target inhibition of OVA-16 lysis by 41.CD8+ CTL with peptide-pulsed C1R:A2 cells; conditions: cold:hot 2:1, E:T 10:1, 4- and 20-h assays
Description: FIG. 4A. Target specificity of the 41.CD8^+ CTL were tested for the ability to lyse 5^1Cr-labeled OVA-16 at an E:T ratio of 10:1. C1R:A2 cells (A2.1) were incubated with synthetic peptides (D125, C43, C85), washed, and used in cold target inhibition studies at a cold:hot ratio of 2:1. Cytotoxicity studies were performed for 5 hr. Results represent the mean of three determinations. The variability between samples was less than 10%. The differences between determination are statistically significant (P<0.03) as determined by Student's t test. Percentage inhibition is indicated in parentheses.
FIG. 4B. Target specificity of the 41.CD8^+ CTL were tested for the ability to lyse ^51Cr-labeled OVA-16 at an E:T ratio of 10:1. C1R:A2 cells (A2.1) were incubated with synthetic peptides (D125, C43, C85), washed, and used in cold target inhibition studies at a cold:hot ratio of 2:1. Cytotoxicity studies were performed for 20 hr. Results represent the mean of three determinations. The variability between samples was less than 10%. The differences between determination are statistically significant (P<0.03) as determined by Student's t test. Percentage inhibition is indicated in parentheses.
Tumor cells and fibroblasts were labeled with 200 μCi of ^51Cr (Na^51CrO4; Amersham, Arlington Heights, Ill.) for 90 min at 37° C. (Ioannides et al., 1991). Lymphoblastoid cells and HLA-A2 transfectants were labeled overnight in RPMI-FCS, then washed three times and incubated with effector cells in RPMI-FCS in an incubator with 5%. CO2 (Bednarek et al., 1991; Gammon et al., 1992). When peptide recognition was determined, targets were incubated with 25 μM of peptides overnight during ^51Cr labeling or with 10 μM peptide for 2 h at 37° C. in RPMI-FCS then washed three times before being incubated with effector cells. Separate controls for spontaneous and total lysis were made for each peptide-pulsed target (Ioannides et al., 1991; Bednarek et al., 1991; Gammon et al., 1992). After 4-5 h, 100 μl of supernatant was collected and counted. To determine maximum lysis in 20-h assays, plates were left undisturbed in the incubator and the supernatant was collected after overnight incubation. For cold target inhibition studies, C1R:A2 cells were preincubated with HER-2 or control peptides overnight, then washed and admixed with ^51Cr-labeled targets at 2:1 and 6:1 (cold:hot targets) ratios. Percentage lysis was calculated from the formula: 100×[(E−S)/(T−S)], where E is experimental release, S is release in the absence of CTL, and T is release in 2 M HCl.
To confirm that the 41.CD8^+ CTL line recognizes epitopes on HER-2^high tumors contained on peptides used for stimulation, cold target inhibition studies were performed. […]

[2] = tested on: HLA-A2- CTL from donors 14 and 15; experiment: Presentation of peptides by HLA-A2+ transfectants to HLA-A2- CTL; conditions: CTL induced with the same peptides
C1R:A2 and T2 cells = experiment: Lysis by LAK cells in presence of peptides
Description: It is unlikely that tumor killing by 41.CD8^+ CTL reflects LAK type activity. LAK cells lyse K562 with higher efficiency than they lyse human tumors (Grimm et al., 1982). Also, both C1R:A2 and SkOV3.A2 were transfected with the same HLA-A2 plasmid expression vector. […] In separate studies, LAK cells lysed effectively both C1R:A2 and T2 cells. This lysis was not affected by C43/C84 or mutated peptides based on this sequence.

C1R:A2 cells = experiment: Lysis of peptide-sensitized C1R:A2 cells by CTL cultures induced in vitro with C43 and C84; conditions: E:T 10:1, donor 51
[3] = tested on: C1R:A1 cells (HLA-A1 transfectants); experiment: Ag specificity of the 41.CD8+ CTL line on peptide-pulsed targets
Description: FIG. 2A. Ag specificity of the 41.CD8^+ CTL line. C1R:A2 cells were pre-pulsed with either HER-2 peptides or control MUC-1 peptides before being incubated with effectors. The effector to target ratio was 10:1. C1R:A1 and C1R:A3 targets were pre-pulsed with the same peptides in the same conditions as C1R:A2 cells. Results for C1R:A1 and C1R:A3 show the difference between specific lysis of targets preincubated with peptides and control C1R:A1 and C1R:A3 targets. Specific lysis of control C1R:A1 and C1R:A3 cells was less than 10% at the same E:T ratio. Shown in FIG. 2A are results after 4 hrs' incubation.
Tumor cells and fibroblasts were labeled with 200 μCi of ^51Cr (Na^51CrO4; Amersham, Arlington Heights, Ill.) for 90 min at 37° C. (Ioannides et al., 1991). Lymphoblastoid cells and HLA-A2 transfectants were labeled overnight in RPMI-FCS, then washed three times and incubated with effector cells in RPMI-FCS in an incubator with 5%. […] When peptide recognition was determined, targets were incubated with 25 μM of peptides overnight during ^51Cr labeling or with 10 μM peptide for 2 h at 37° C. in RPMI-FCS then washed three times before being incubated with effector cells. […] After 4-5 h, 100 μl of supernatant was collected and counted. […] Percentage lysis was calculated from the formula: 100×[(E−S)/(T−S)], where E is experimental release, S is release in the absence of CTL, and T is release in 2 M HCl. […]

Row | Sequence | inhibition of tumor lysis by peptide-pulsed cold targets [1] | cross-presentation to HLA-A2- CTL [2] | effect on lysis by LAK cells (C1R:A2 and T2 cells) | difference between HER-2 peptide and control targets recognition (C1R:A2 cells; 4-hr assay) | difference between HER-2 peptide and control targets recognition (C1R:A2 cells; 20-hr assay) | lysis of peptide pulsed versus control targets by 41.CD8+ CTL [3]
1 | RFRELVSEFSRMAR [Peptide C43, HER-2:968-981 14mer peptide] | inhibited the lysis of the OVA-16 tumor; also recorded: inhibit HER-2^high tumor lysis | did not cross-present | not affected | not significant | significant | failed to elicit a higher lysis of peptide pulsed than of control targets
2 | ELVSEFSRV [Peptide C84, HER-2:971-979 analog, Met(P9) substituted by Val] | inhibit HER-2^high tumor lysis; also recorded: specifically inhibit tumor lysis | did not cross-present | not affected | not significant | significant | failed to elicit a higher lysis of peptide pulsed than of control targets
